Measurements as given in patent US9005649B2, “Methods for making controlled delivery devices having zero order kinetics” (Board of Regents, the University of Texas System, priority 2009, dated 2015).

Assays:
[1] = intravenous, AIDS patients with CMV retinitis; cited from earlier work
[2] = Release of crystal violet from impermeable polyimide tube delivery devices into phosphate buffered saline (USP Disintegration Apparatus, UV-Vis); format: physicochemical; details: for linearity of release: 28 days; for total duration of release, percentage release extrapolated to 100%: PBS pH 7.37, 37° C., 28 days data
Experimental: Lengths of polyimide tubes were provided having a length of 20 mm and a diameter of 125 microns. At the centre of each tube, a passageway with a diameter of 30 microns was made using standard chemical procedures.
Seven (7) tubes having the optimal passageways were selected and loaded with a concentrated solution of crystal violet in ethanol by capillary method. The tubes were then allowed to stand for 24 hours at room temperature to evaporate alcohol from the tubes, such that the tube is tightly packed with a solid crystal violet composition.
After taking an initial weight measurement, an average amount of 126 micrograms of crystal violet was estimated inside the tubes. The ends of the tubes were sealed with a bioglue and dried.
Single passageway tubes made according to Example I were placed in microvials containing 0.26 ml of phosphate buffered saline (0.01 M phosphate, pH 7.37). The vials were placed in a USP Disintegration Apparatus having dip rate of 30-32 dips per minute. The apparatus was connected to a waterbath maintained at 37° C. for the entire duration of study. The buffer was changed every 48 hours, sampled, and analyzed for the amount of crystal violet released using a UV-Vis Spectrophotometer for 28 days.
Several drug delivery devices were constructed in accordance with in Example I except that two passageways were made located equidistant from the tube centre. The optimal seven (7) were selected and loaded with crystal violet in accordance with Example I.
Several drug delivery devices were constructed in accordance with Example I except that three passageways were made located equidistant from each end of the tube. The optimal seven (7) were selected and loaded with crystal violet in accordance with Example I.
Seven (7) lengths of polyimide tubes were provided having a length of 20 mm and a diameter of 125 microns. The tubes were then loaded with a concentrated solution of crystal violet in ethanol by capillary method. The tubes were then allowed to stand for 24 hours at room temperature to evaporate alcohol from the tubes, such that the tube is tightly packed with a solid crystal violet composition. One end of the tube was sealed with a bioglue while the other end was left open.
A drug delivery device made in accordance with Example VIII was subjected to release studies as described in Example II. […] The percentage release when extrapolated to 100% corresponds to the total duration of release of approximately 2 years.

[3] = Release of crystal violet from single outlet port devices of 200, 400 and 600 microns inside diameter (incubator, UV-Vis); format: physicochemical; details: one outlet port devices, 200, 400, 600 microns inside diameter, 3.0 ml PBS pH 7.37, 37° C., 7 days
Experimental: Drug delivery devices were made having one outlet port and one sealed end. […] Three different variation of devices were prepared with different inside diameters, as in 200, 400, and 600 microns. Four devices of each type were subjected to release studies as described in Example I. Single passageway tubes were placed in micro vials containing 3.0 ml of phosphate buffered saline (0.01 M phosphate, pH 7.37). The vials were placed in an incubator maintained at 37° C. for the entire duration of study. The buffer was changed every 24 hours, sampled, and analyzed for the amount of crystal violet released using a UV-Vis Spectrophotometer for seven (7) days.

[4] = Release of crystal violet from impermeable polyimide tube delivery devices into phosphate buffered saline (USP Disintegration Apparatus, UV-Vis); format: physicochemical; details: single outlet port device
[5] = continuous release for seven days, glaucoma; cited from earlier work

Nc1nc(O)c2ncn(COC(CO)CO)c2n1 [Ganciclovir]
patients experiencing bone marrow toxicity resulting in neutropenia (neutrophil count <1000) [1]: 30-50%

CN(C)c1ccc(C(=C2C=CC(=[N+](C)C)C=C2)c2ccc(N(C)C)cc2)cc1 [crystal violet]
amount released relative to single passageway device ([2]; double passageway device): two-fold
linearity of release ([2]; double passageway device): significant linear agent release
total duration of release, percentage release extrapolated to 100% ([2]; double passageway device): approximately 22 years
total duration of release, percentage release extrapolated to 100% ([2]; single passageway device (30 micron passageway, 20 mm x 125 micron tube)): approximately 43 years
linearity of release ([2]; single passageway device): significant linearity of release
amount released relative to single passageway device ([2]; triple passageway device): three-fold
linearity of release ([2]; triple passageway device): significant linear agent release
total duration of release, percentage release extrapolated to 100% ([2]; triple passageway device): approximately 15 years
linearity of release [3]: significant linearity of release
linearity of release ([4]; 5 days): significant linearity of release
total duration of release, percentage release extrapolated to 100% ([4]; no surface passageways, one open end, 5 days data): approximately 2 years

CC[C@@H]1C(=O)OC[C@@H]1Cc1cncn1C [pilocarpine]
release rate from ocular insert [5]: 20 to 40 µg/h
